Key:
MC38 cells [1] = test: In vivo metastasis assay (tail vein injection, C57Bl/6 mice); set-up: species or system mouse; settings: 10 mg/kg every 48 hours, 3 weeks
Procedure: FIG. 24A: MC38 cells were subjected to invasion assays using BioCoat Matrigel transwells in the presence of the indicated concentrations of AP-4-139B. 24 hours later, cells were fixed and stained with Crystal Violet. Shown are representative images taken from 8 random fields of view per well. Scale bar=100 μm. FIG. 24B: Quantification of FIG. 24A *** p<0.001. FIG. 24C: Schematic representation of the metastasis assay. 4×10^5 MC38 cells were injected into the tail vein of 8-10 week old male C57Bl/6 mice. Mice were treated with i.p. injection of 10 mg/kg AP-4-139B every 48 hours. After 3 weeks, the lungs of mice were formalin fixed and H&E stained, and assessed for the presence of metastatic nodules. […] FIG. 24E: Quantification of FIG. 24D. n=5 mice per group. * p<0.05.
For in vivo metastasis assays, 8-10 week old male C57Bl/6 mice were injected with 4×10^5 MC38 cells. […] At the end of the study, mice were euthanized, lungs were harvested and fixed in formalin for analysis of lung tumor nodules by H&E. For anti-tumor vaccination studies, MC38 cells were treated with 10 μM AP-4-139B for 48 h, resulting in approximately 20% cell death (as assessed by Trypan Blue staining). […] Ten days later, mice were challenged on the right flank with 5×10^5 live MC38 cells, and tumor growth and incidence were monitored 3 times per week. […]

MC38 cells [2] = test: Cell death of MC38 cells pre-treated for vaccination (Trypan Blue staining); type: cell-based, mouse; settings: 10 μM, 48 h
Procedure: For in vivo metastasis assays, 8-10 week old male C57Bl/6 mice were injected with 4×10^5 MC38 cells. Mice were then treated with either vehicle or 10 mg/kg AP-4-139B every 48 hours for 3 weeks. At the end of the study, mice were euthanized, lungs were harvested and fixed in formalin for analysis of lung tumor nodules by H&E. For anti-tumor vaccination studies, MC38 cells were treated with 10 μM AP-4-139B for 48 h, resulting in approximately 20% cell death (as assessed by Trypan Blue staining). 2×10^6 pre-treated MC38 cells or PBS was inoculated subcutaneously into the left flank of 8-10 week old male C57BL/6 mice. Ten days later, mice were challenged on the right flank with 5×10^5 live MC38 cells, and tumor growth and incidence were monitored 3 times per week. The absence of tumors was scored as an indication for efficient antitumor vaccination.

WM983B tumor xenografts = test: WM983B melanoma xenograft in NSG mice; type: in vivo, mouse; settings: 12.5 mg/kg i.p. twice per week
Procedure: WM983B tumor xenografts were established in NSG mice. […] Tumors were collected at the end of the experiment and assessed for the level of the client protein MRPS14.
FIG. 18 comprises a series of images illustrating IHC of WM983B treated tumors using IgG negative control or antisera to MRPS14t.
AP-4-139B was tested as a single agent in a WM983B melanoma xenograph in mice. WM983B tumor xenografts were established in NSG mice. […] Tumors were collected at the end of the experiment and assessed for the level of the client protein MRPS14.

MC38 and HT-29 cells = test: Extracellular HMGB1 release; type: cell-based; settings: 8 or 24 hours
Procedure: FIG. 6A: 1×10^6 MC38 cells were injected subcutaneously into the right flank of 6-8-week-old male C57Bl/6 mice. Once tumors reached an approximate volume of 100 mm^3, mice were treated with AP-4-139B (10 mg/kg) every 48 hours. 20 days after the start of treatment, tumors were excised, weighed, minced and digested. Tumor-infiltrating and splenic conventional CD4 (cCD4) (Live CD45^+ DUMP^− CD3^+CD4^+Foxp3^−), Tregs (Live CD45^+ DUMP^− CD3^+CD4^+Foxp3^+), CD8 (Live CD45^+ DUMP^− CD3^+CD8^+) T-cells, and Dendritic Cells (Live CD45^+ DUMP^− CD3^−CD11c^+MHCII^+) numbers were assessed by flow cytometry. * p<0.05, n.s. not significant. n=8 mice per group. FIG. 6B: MC38 and HT-29 cells were treated with the indicated concentrations of AP-4-139B for either 8 or 24 hours; media was collected and subjected to WB for HMGB1. Data shown are representative of three technical replicates. FIG. 6C: MC38 and HT-29 cells were treated with the indicated concentrations of AP-4-139B for three hours and then assayed for extracellular ATP release. […]
The XF Cell Mito Stress Test was performed. […] For extracellular ATP release, ATP was measured using the CellTiter-Glo Kit (Promega catalog #G7570). […] 10 μl of CellTiter-Glo Reaction Mix was then mixed with 10 μl of culture media; the luminescence signal was detected using a luminometer.

[3] = Half-life of PET-16 in plasma

## c1ccc(-c2cn3nc(CCCCCC[P+](c4ccccc4)(c4ccccc4)c4ccccc4)sc3n2)cc1 [AP-4-139B, Triphenyl(6-(6-phenylimidazo[2,1-b][1,3,4]thiadiazol-2-yl)hexyl)phosphonium bromide]
MC38 cells [1]
  number of tumor nodules in the lung: markedly decreased number of tumor nodules in the lung
MC38 cells [2]
  cell death of MC38 cells: approximately 20%
WM983B tumor xenografts
  level of client protein MRPS14 in tumors (IHC): lose mitochondrial protein MPS14
  tumor growth, WM983B xenograft: inhibit tumor growth
MC38 and HT-29 cells
  HMGB1 secretion: reproducibly induced HMGB1 secretion

## C(#C[P+](c1ccccc1)(c1ccccc1)c1ccccc1)c1ccccc1 [PET-16, Triphenyl(phenylethynyl)phosphonium bromide, reference compound]
[3]
  half-life: < 30 min
